Laboratory results reported in publication PMC6736568, “Discovery of Novel Anti-cryptosporidial Activities From Natural Products by in vitro High-Throughput Phenotypic Screening” (Frontiers in Microbiology, 2019).
Structures can show the parent of a compound that is named as a salt. Where two headings read alike, the source gives them in different places.

Legend:
Cryptosporidium parvum = experiment: qRT-PCR assay of the growth of C. parvum in vitro in HCT-8 host cells (primary and secondary screening, EC50); format: cell-based; conditions: Cryptosporidium parvum, HCT-8; for inhibition at 10 µM: primary screening at 10 uM, read-out: Inhibition (%); for inhibition at 3.3 µM: secondary screening at 3.3 uM, read-out: % Inhibition (3.3 uM)
[1] = primary screening at 10 uM, treated vs control

| Structure (SMILES) | inhibition at 10 µM (Cryptosporidium parvum) [%] | cytotoxicity at 10 µM (in vitro) [%] | Hs18S ΔCT (HCT-8 host cells (Hs18S); [1]) | cytotoxicity at 41 h, 10 µM (in vitro; human) [%] | Hs18S ΔCT (HCT-8 host cells (Hs18S); human, 41 h, 10 μM) | cytotoxicity at 41 h, 10 µM (in vitro) [%] | inhibition at 3.3 µM (Cryptosporidium parvum) [%] | Hs18S ΔCT (HCT-8 host cells (Hs18S)) |
| --- | --- | --- | --- | --- | --- | --- | --- | --- |
| CCCCCC[C@H]1C(=O)O[C@H](C)[C@H](NC(=O)c2cccc(NC=O)c2O)C(=O)O[C@@H](C)[C@@H]1OC(=O)CC(C)C [ANTIMYCIN A, ANTIMYCIN A (A1 shown)] | 10.9 | 7.7 | 0.12 |  |  |  |  |  |
| O=C(O)C1CC([C@@H]2CCCCN2)CN2CCCCC12 (stereo partly drawn) [APHYLLIC ACID] | -28.5 |  |  | 16.1 | 0.25 |  |  |  |
| COc1ccc(-c2cc(=O)c3c(O)cc(OC)cc3o2)cc1 [APIGENIN DIMETHYL ETHER] | -37.8 | 11.3 | 0.17 |  |  |  |  |  |
| O=c1cc(-c2ccc(O)cc2)oc2cc(O)cc(O)c12 [APIGENIN] | -44.6 |  |  | 3.9 | 0.06 |  |  |  |
| OC[C@H]1O[C@@H](Oc2ccc(O)cc2)[C@H](O)[C@@H](O)[C@@H]1O [ARBUTIN] | 16.1 |  |  | 0.5 | 0.01 |  |  |  |
| COC(=O)C1=CCCN(C)C1 [ARECOLINE HYDROBROMIDE] | -6.72 | -38.7 | -0.47 |  |  |  |  |  |
| COc1cccc2c1cc([N+](=O)[O-])c1c(C(=O)O)cc3c(c12)OCO3 [ARISTOLOCHIC ACID] | 8.39 |  | -0.03 |  |  | -1.8 |  |  |
| C[C@@H]1CC[C@H]2[C@@H](C)C(=O)O[C@@H]3O[C@@]4(C)CC[C@@H]1[C@]32OO4 [ARTEMISININ] | 16.7 |  |  | 0 | 0.00 |  |  |  |
| CCCCCC(=O)Cc1cc(O)cc(O)c1C(=O)Oc1cc(CC(=O)CCCCC)c(C(=O)O)c(OC)c1 [ARTHONIOIC ACID] | -25.4 |  |  | 1.1 | 0.02 |  |  |  |
| O=C1O[C@H]([C@@H](O)CO)C(O)=C1O [ASCORBIC ACID] | 12 |  |  | 26.2 | 0.44 |  |  |  |
| C[C@H]1[C@H](C)CC[C@]2(C(=O)O)CC[C@]3(C)C(=CC[C@@H]4[C@@]5(C)C[C@@H](O)[C@H](O)[C@@](C)(CO)[C@@H]5CC[C@]43C)[C@H]12 [ASIATIC ACID] | 25.1 |  |  | -22.7 | -0.29 |  |  |  |
| CC1=C(/C=C/C(C)=C/C=C/C(C)=C/C=C/C=C(C)/C=C/C=C(C)/C=C/C2=C(C)C(=O)[C@@H](O)CC2(C)C)C(C)(C)C[C@H](O)C1=O [ASTAXANTHIN] | 45.1 |  |  | -34.8 | -0.43 |  |  |  |
| COC(=O)c1c(C)cc(OC(=O)c2c(C)cc(O)c(C=O)c2O)c(C)c1O [ATRANORIN] | -45.9 |  |  | 50.7 | 1.02 |  |  |  |
| CN1[C@@H]2CC[C@H]1C[C@@H](OC(=O)C(CO)c1ccccc1)C2 (stereo partly drawn) [ATROPINE SULFATE] | 3.7 | 16.3 | 0.26 |  |  |  |  |  |
| C#CCCCCCCCCCCCC(O)CC(O)COC(C)=O (stereo not drawn) [AVOCADYNE ACETATE] | 15.8 |  |  | 12.2 | 0.19 |  |  |  |
| C=CCCCCCCCCCCCC(O)CC(O)COC(C)=O (stereo not drawn) [AVOCATIN A] | 46 |  |  | -0.1 | 0.00 |  |  |  |
| C/C=C(\C)C(=O)O[C@H]1C[C@@H](OC(C)=O)[C@@]2(C(=O)OC)CO[C@H]3[C@@H](O)[C@@](C)([C@]45O[C@@]4(C)[C@H]4C[C@@H]5O[C@@H]5OC=C[C@@]54O)[C@H]4[C@]1(CO[C@]4(O)C(=O)OC)[C@@H]32 [AZADIRACHTIN] | 23.7 |  |  | -0.1 | 0.00 |  |  |  |
| O=C(O)CCCCCCCC(=O)O [AZELAIC ACID] | 6.72 |  |  | 1.8 | 0.03 |  |  |  |
| CC(=O)O[C@H]1C(=O)[C@@]2(C)[C@H]([C@H](OC(=O)c3ccccc3)[C@]3(O)C[C@H](O)C(C)=C1C3(C)C)[C@]1(OC(C)=O)CO[C@@H]1C[C@@H]2O [BACCATIN III] | 1.76 | 5.2 | 0.08 |  |  |  |  |  |
| O=C(O)[C@H]1O[C@@H](Oc2cc3oc(-c4ccccc4)cc(=O)c3c(O)c2O)[C@H](O)[C@@H](O)[C@@H]1O [BAICALIN] | -13 |  | -0.23 | -17.1 |  |  |  |  |
| CCCCCCCCCCCCCCCCCCOCC(O)CO (stereo not drawn) [BATYL ALCOHOL] | 41.3 |  |  | -48 | -0.57 |  |  |  |
| NC[C@H]1O[C@H](O[C@H]2[C@H](O)[C@@H](O[C@H]3O[C@H](CO)[C@@H](O)[C@H](N)[C@H]3O)[C@H](N)C[C@@H]2N)[C@H](N)[C@@H](O)[C@@H]1O [BEKANAMYCIN SULFATE] | 4.16 |  |  | 8.7 | 0.13 |  |  |  |
| S=C=NCc1ccccc1 [BENZYL ISOTHIOCYANATE] | 91.8 |  | 0.57 | 32.8 |  |  | 14 |  |
| COc1c2ccoc2cc2oc(=O)ccc12 [BERGAPTEN] | -22.3 | 4.3 | 0.06 |  |  |  |  |  |

| Structure (SMILES) | inhibition at 10 µM (Cryptosporidium parvum) [%] | cytotoxicity at 10 µM (in vitro) [%] | Hs18S ΔCT (HCT-8 host cells (Hs18S); [1]) | cytotoxicity at 41 h, 10 µM (in vitro; human) [%] | Hs18S ΔCT (HCT-8 host cells (Hs18S); human, 41 h, 10 μM) | cytotoxicity at 41 h, 10 µM (in vitro) [%] | inhibition at 3.3 µM (Cryptosporidium parvum) [%] | Hs18S ΔCT (HCT-8 host cells (Hs18S)) |
| --- | --- | --- | --- | --- | --- | --- | --- | --- |
| COc1c(O)cc2c(c1O)[C@@H]1O[C@H](CO)[C@@H](O)[C@H](O)[C@H]1OC2=O [BERGENIN] | 36 |  |  | 23.1 | 0.38 |  |  |  |
| C[N+](C)(C)CC(=O)O [BETAINE HYDROCHLORIDE] | 19.9 |  |  | -30 | -0.38 |  |  |  |
| C=C(C)[C@@H]1CC[C@]2(C(=O)O)CC[C@]3(C)[C@H](CC[C@@H]4[C@@]5(C)CC[C@H](O)C(C)(C)[C@@H]5CC[C@]43C)[C@@H]12 [BETULINIC ACID] | 33 | -17.4 | -0.23 |  |  |  |  |  |
| C=C(C)[C@@H]1CC[C@]2(CO)CC[C@]3(C)[C@H](CC[C@@H]4[C@@]5(C)CC[C@H](O)C(C)(C)[C@@H]5CC[C@]43C)[C@@H]12 [BETULIN] | 36.9 | -40.4 | -0.49 |  |  |  |  |  |
| C=CC1=C(C)/C(=C/c2[nH]c(Cc3[nH]c(/C=C4\NC(=O)C(C)=C4C=C)c(C)c3CCC(=O)O)c(CCC(=O)O)c2C)NC1=O [BILIRUBIN] | -7.55 |  |  | -0.9 | -0.01 |  |  |  |
| O=C(O)CCCC[C@@H]1SC[C@@H]2NC(=O)N[C@@H]21 [BIOTIN] | 11.9 | -18.4 | -0.24 |  |  |  |  |  |
| CCc1ccc2c(O)c3c(cc2c1C(=O)OC)C(=O)c1c(O)ccc(O)c1C3=O [BISANHYDRORUTILANTINONE] | 24.5 |  |  | -12 | -0.16 |  |  |  |
| CC(C)(c1ccc(O)cc1)c1ccc(O)cc1 [BISPHENOL A] | -35.2 |  |  | -15 | -0.20 |  |  |  |
| COC(=O)/C=C/C(C)=C\C=C\C(C)=C\C=C\C=C(C)\C=C\C=C(C)\C=C\C(=O)O [BIXIN] | 49.3 |  |  | 34.2 | 0.60 |  |  |  |
| COc1cc2c(cc1O)C[C@H]1c3c(cc(O)c(OC)c3-2)CCN1C [BOLDINE] | -28.6 | -26.4 | -0.34 |  |  |  |  |  |
| O=C1C=C2CC3(O)COc4cc(O)ccc4C3=C2C=C1O (stereo not drawn) [BRAZILEIN] | -12.2 |  |  | 2.2 | 0.03 |  |  |  |
| Oc1ccc2c(c1)OC[C@]1(O)Cc3cc(O)c(O)cc3[C@H]21 [BRAZILIN] | 8.3 |  |  | -8.9 | -0.12 |  |  |  |
| COc1cc2c(cc1OC)[C@@]13CCN4CC5=CCO[C@H]6CC(=O)N2[C@H]1[C@H]6[C@H]5C[C@H]43 [BRUCINE] | 49.9 | -8.2 | -0.11 |  |  |  |  |  |
| COC(=O)C[C@H]1C2(C)CC34OC5(C)O[C@@]6([C@H](OC(C)=O)C(OC(C)=O)[C@]7(C)C(/C(=C(/O)C(C)C)C(=O)O[C@H]7c7ccoc7)[C@@]6(O5)[C@H](OC(C)=O)[C@@]3(O)C2OC(=O)C(C)C)[C@]14C (stereo partly drawn) [BUSSEIN] | 85.1 |  |  | -25.3 | -0.33 |  | 34 |  |
| O=C(O)/C=C/c1ccc(O)c(O)c1 [CAFFEIC ACID] | 18.9 |  |  | -26.2 | -0.34 |  |  |  |
| Cn1c(=O)c2c(ncn2C)n(C)c1=O [CAFFEINE] | 3.94 | 16.9 |  |  |  |  |  | 0.27 |
| CC[C@@]1(O)C(=O)OCc2c1cc1n(c2=O)Cc2cc3ccccc3nc2-1 [CAMPTOTHECIN] | 76 | 60.8 | 1.35 |  |  |  | 59 |  |
| N=C(N)NOCC[C@H](N)C(=O)O [CANAVANINE] | -3.4 | 18.4 | 0.29 |  |  |  |  |  |
| COc1cc(CNC(=O)CCCC/C=C/C(C)C)ccc1O [CAPSAICIN] | -54.2 | 0.1 | 0.00 |  |  |  |  |  |
| CC1=C(/C=C/C(C)=C/C=C/C(C)=C/C=C/C=C(C)/C=C/C=C(C)/C=C/C(=O)[C@]2(C)C[C@@H](O)CC2(C)C)C(C)(C)C[C@H](O)C1 [CAPSANTHIN] | -5.31 |  |  | -5.5 | -0.08 |  |  |  |
| COC(=O)C[C@H]1C(C)(C)C(=O)[C@@H]2CC3C4=CC(=O)O[C@@H](c5ccoc5)[C@]4(C)CC[C@@H]3[C@@]1(C)C2=O (stereo partly drawn) [CARAPIN] | 30.7 |  |  | -5.2 | -0.07 |  |  |  |
| Cc1c(C(=O)O)c(O)cc2c1C(=O)c1c(O)c([C@@H]3O[C@H](CO)[C@@H](O)[C@H](O)[C@H]3O)c(O)c(O)c1C2=O [CARMINIC ACID] | -24.9 |  |  | -7.5 | -0.10 |  |  |  |
| NCCC(=O)N[C@@H](Cc1cnc[nH]1)C(=O)O [CARNOSINE] | 41.1 |  |  | 5.5 | 0.08 |  |  |  |
